Assay results published in patent publication US20110173718A1, “HERBICIDE TOLERANT PLANTS” (SYNGENTA CROP PROTECTION, INC., priority 2008, published 2011).

Test system: weeds
Assay: Glasshouse weed control by HST/HPPD (mesotrione) mixtures, pre-emergence
Assay type: in vivo
Conditions: for colby: Colby synergy score; for % Damage at 14 DAA, 1 g ai ha^−1 mesotrione / % Damage at 14 DAA, no-mesotrione: N = 3
Protocol: Weed seeds are planted out in trays containing suitable soil (for example 50% peat, 50% John Innes soil no 3) and grown in the glass house conditions under 24-27° C. day; 18-21° C. night and approximately a 14 h (or longer in UK summer) photoperiod. Humidity is ˜65% and light levels up to 2000 μmol/m^2 at bench level. Trays are sprayed with test chemicals dissolved in water with 0.2-0.25% X-77 surfactant and sprayed from a boom on a suitable track sprayer moving at about 2 mph in a suitable track sprayer (for example a DeVries spray chamber with the nozzle about 2 inches from the plant tops). Spray volume is suitably 500-1000 l/ha. Sprays are carried out both pre-emergence and over small plants at about 7-12 d post-emergence
Plants are assessed 14 DAT and herbicidal damage is scored on a scale from 0 to 100%. The HST inhibitor compound 2.30 (designated compound A in table 16 and 17), haloxydine (compound 1.1) and compound 2.13 (designated compound AE in tables 16 and 17) are sprayed at rates between 0 and 500 g/ha.

[1] = ALOMY, 16 g/ha + mesotrione 1 g ai/ha
[2] = ALOMY, 31 g/ha + mesotrione 1 g ai/ha
[3] = ALOMY, 63 g/ha + mesotrione 1 g ai/ha
[4] = ALOMY, 125 g/ha + mesotrione 1 g ai/ha
[5] = ALOMY, 250 g/ha + mesotrione 1 g ai/ha
[6] = ALOMY, 500 g/ha + mesotrione 1 g ai/ha
[7] = AMARE, 16 g/ha + mesotrione 1 g ai/ha
[8] = AMARE, 31 g/ha + mesotrione 1 g ai/ha
[9] = AMARE, 63 g/ha + mesotrione 1 g ai/ha
[10] = AMARE, 125 g/ha + mesotrione 1 g ai/ha
[11] = AMARE, 250 g/ha + mesotrione 1 g ai/ha
[12] = AMARE, 500 g/ha + mesotrione 1 g ai/ha
[13] = ECHCG, 16 g/ha + mesotrione 1 g ai/ha
[14] = ECHCG, 31 g/ha + mesotrione 1 g ai/ha
[15] = ECHCG, 63 g/ha + mesotrione 1 g ai/ha
[16] = ECHCG, 125 g/ha + mesotrione 1 g ai/ha
[17] = ECHCG, 250 g/ha + mesotrione 1 g ai/ha
[18] = ECHCG, 500 g/ha + mesotrione 1 g ai/ha
[19] = IPOHE, 16 g/ha + mesotrione 1 g ai/ha
[20] = IPOHE, 31 g/ha + mesotrione 1 g ai/ha
[21] = IPOHE, 63 g/ha + mesotrione 1 g ai/ha
[22] = IPOHE, 125 g/ha + mesotrione 1 g ai/ha
[23] = IPOHE, 250 g/ha + mesotrione 1 g ai/ha
[24] = IPOHE, 500 g/ha + mesotrione 1 g ai/ha
[25] = SETFA, 16 g/ha + mesotrione 1 g ai/ha
[26] = SETFA, 31 g/ha + mesotrione 1 g ai/ha
[27] = SETFA, 63 g/ha + mesotrione 1 g ai/ha
[28] = SETFA, 125 g/ha + mesotrione 1 g ai/ha
[29] = SETFA, 250 g/ha + mesotrione 1 g ai/ha
[30] = SETFA, 500 g/ha + mesotrione 1 g ai/ha
[31] = SOLNI, 16 g/ha + mesotrione 1 g ai/ha
[32] = SOLNI, 31 g/ha + mesotrione 1 g ai/ha
[33] = SOLNI, 63 g/ha + mesotrione 1 g ai/ha
[34] = SOLNI, 125 g/ha + mesotrione 1 g ai/ha
[35] = SOLNI, 250 g/ha + mesotrione 1 g ai/ha
[36] = SOLNI, 500 g/ha + mesotrione 1 g ai/ha

## CC(C)C(=O)Oc1c(-c2c(F)ccc(Br)c2Cl)c(=O)n(CC(F)F)c2nccnc12 [Compound 2.30]
[1]
  colby: 0%
  % Damage at 14 DAA, 1 g ai ha^−1 mesotrione: 0%
ALOMY, 16 g/ha
  % Damage at 14 DAA, no-mesotrione: 0%
[2]
  colby: 0%
  % Damage at 14 DAA, 1 g ai ha^−1 mesotrione: 0%
ALOMY, 31 g/ha
  % Damage at 14 DAA, no-mesotrione: 0%
[3]
  colby: 0%
  % Damage at 14 DAA, 1 g ai ha^−1 mesotrione: 0%
ALOMY, 63 g/ha
  % Damage at 14 DAA, no-mesotrione: 0%
[4]
  colby: 0%
  % Damage at 14 DAA, 1 g ai ha^−1 mesotrione: 0%
ALOMY, 125 g/ha
  % Damage at 14 DAA, no-mesotrione: 0%
[5]
  colby: −2%
  % Damage at 14 DAA, 1 g ai ha^−1 mesotrione: 0%
ALOMY, 250 g/ha
  % Damage at 14 DAA, no-mesotrione: 2%
[6]
  colby: 10%
  % Damage at 14 DAA, 1 g ai ha^−1 mesotrione: 20%
ALOMY, 500 g/ha
  % Damage at 14 DAA, no-mesotrione: 10%
[7]
  colby: −2%
  % Damage at 14 DAA, 1 g ai ha^−1 mesotrione: 0%
AMARE, 16 g/ha
  % Damage at 14 DAA, no-mesotrione: 0%
[8]
  colby: −2%
  % Damage at 14 DAA, 1 g ai ha^−1 mesotrione: 0%
AMARE, 31 g/ha
  % Damage at 14 DAA, no-mesotrione: 0%
[9]
  colby: 8%
  % Damage at 14 DAA, 1 g ai ha^−1 mesotrione: 10%
AMARE, 63 g/ha
  % Damage at 14 DAA, no-mesotrione: 0%
[10]
  colby: 29%
  % Damage at 14 DAA, 1 g ai ha^−1 mesotrione: 40%
AMARE, 125 g/ha
  % Damage at 14 DAA, no-mesotrione: 10%
[11]
  colby: 9%
  % Damage at 14 DAA, 1 g ai ha^−1 mesotrione: 47%
AMARE, 250 g/ha
  % Damage at 14 DAA, no-mesotrione: 37%
[12]
  colby: 16%
  % Damage at 14 DAA, 1 g ai ha^−1 mesotrione: 90%
AMARE, 500 g/ha
  % Damage at 14 DAA, no-mesotrione: 73%
[13]
  colby: 0%
  % Damage at 14 DAA, 1 g ai ha^−1 mesotrione: 0%
ECHCG, 16 g/ha
  % Damage at 14 DAA, no-mesotrione: 0%
[14]
  colby: 0%
  % Damage at 14 DAA, 1 g ai ha^−1 mesotrione: 0%
ECHCG, 31 g/ha
  % Damage at 14 DAA, no-mesotrione: 0%
[15]
  colby: 0%
  % Damage at 14 DAA, 1 g ai ha^−1 mesotrione: 0%
ECHCG, 63 g/ha
  % Damage at 14 DAA, no-mesotrione: 0%
[16]
  colby: −2%
  % Damage at 14 DAA, 1 g ai ha^−1 mesotrione: 0%
ECHCG, 125 g/ha
  % Damage at 14 DAA, no-mesotrione: 2%
[17]
  colby: 0%
  % Damage at 14 DAA, 1 g ai ha^−1 mesotrione: 5%
ECHCG, 250 g/ha
  % Damage at 14 DAA, no-mesotrione: 5%
[18]
  colby: 8%
  % Damage at 14 DAA, 1 g ai ha^−1 mesotrione: 27%
ECHCG, 500 g/ha
  % Damage at 14 DAA, no-mesotrione: 18%
[19]
  colby: 0%
  % Damage at 14 DAA, 1 g ai ha^−1 mesotrione: 0%
IPOHE, 16 g/ha
  % Damage at 14 DAA, no-mesotrione: 0%
[20]
  colby: 0%
  % Damage at 14 DAA, 1 g ai ha^−1 mesotrione: 0%
IPOHE, 31 g/ha
  % Damage at 14 DAA, no-mesotrione: 0%
[21]
  colby: 0%
  % Damage at 14 DAA, 1 g ai ha^−1 mesotrione: 0%
IPOHE, 63 g/ha
  % Damage at 14 DAA, no-mesotrione: 0%
[22]
  colby: 0%
  % Damage at 14 DAA, 1 g ai ha^−1 mesotrione: 0%
IPOHE, 125 g/ha
  % Damage at 14 DAA, no-mesotrione: 0%
[23]
  colby: −2%
  % Damage at 14 DAA, 1 g ai ha^−1 mesotrione: 0%
IPOHE, 250 g/ha
  % Damage at 14 DAA, no-mesotrione: 2%
[24]
  colby: 13%
  % Damage at 14 DAA, 1 g ai ha^−1 mesotrione: 17%
IPOHE, 500 g/ha
  % Damage at 14 DAA, no-mesotrione: 3%
[25]
  colby: 0%
  % Damage at 14 DAA, 1 g ai ha^−1 mesotrione: 0%
SETFA, 16 g/ha
  % Damage at 14 DAA, no-mesotrione: 0%
[26]
  colby: 0%
  % Damage at 14 DAA, 1 g ai ha^−1 mesotrione: 0%
SETFA, 31 g/ha
  % Damage at 14 DAA, no-mesotrione: 0%
[27]
  colby: 0%
  % Damage at 14 DAA, 1 g ai ha^−1 mesotrione: 0%
SETFA, 63 g/ha
  % Damage at 14 DAA, no-mesotrione: 0%
[28]
  colby: −2%
  % Damage at 14 DAA, 1 g ai ha^−1 mesotrione: 0%
SETFA, 125 g/ha
  % Damage at 14 DAA, no-mesotrione: 2%
[29]
  colby: 3%
  % Damage at 14 DAA, 1 g ai ha^−1 mesotrione: 7%
SETFA, 250 g/ha
  % Damage at 14 DAA, no-mesotrione: 3%
[30]
  colby: 10%
  % Damage at 14 DAA, 1 g ai ha^−1 mesotrione: 32%
SETFA, 500 g/ha
  % Damage at 14 DAA, no-mesotrione: 22%
[31]
  colby: −17%
  % Damage at 14 DAA, 1 g ai ha^−1 mesotrione: 0%
SOLNI, 16 g/ha
  % Damage at 14 DAA, no-mesotrione: 0%
[32]
  colby: −10%
  % Damage at 14 DAA, 1 g ai ha^−1 mesotrione: 7%
SOLNI, 31 g/ha
  % Damage at 14 DAA, no-mesotrione: 0%
[33]
  colby: −13%
  % Damage at 14 DAA, 1 g ai ha^−1 mesotrione: 3%
SOLNI, 63 g/ha
  % Damage at 14 DAA, no-mesotrione: 0%
[34]
  colby: −11%
  % Damage at 14 DAA, 1 g ai ha^−1 mesotrione: 8%
SOLNI, 125 g/ha
  % Damage at 14 DAA, no-mesotrione: 2%
[35]
  colby: 11%
  % Damage at 14 DAA, 1 g ai ha^−1 mesotrione: 30%
SOLNI, 250 g/ha
  % Damage at 14 DAA, no-mesotrione: 3%
[36]
  colby: 21%
  % Damage at 14 DAA, 1 g ai ha^−1 mesotrione: 75%
SOLNI, 500 g/ha
  % Damage at 14 DAA, no-mesotrione: 45%
